Results taken from patent US6890954B1, “Uses of 2-bromopalmitate in the treatment of autoimmune disease” (priority 1999, dated 2005).

Experiments:
Format in all cases: cell-based
[1] = test system: Lck; test: DRM (raft) localization in activated Jurkat cells, sucrose gradient: Lck; details: 100 μM 3 hours, OKT3 activated, control 59%
Description: (§1) Isolation of Triton X-100 resistant and soluble fractions was carried out as described previously (12). Isolation of detergent resistant microdomains by sucrose gradients were carried out as follows (19): Jurkat cells (5×10^7) were treated with 2-bromopalmitate, activated with OKT3 mAb as described above, and lysed in 1 ml lysis buffer (25 mM MES pH 6.5, 150 mM NaCl, 0.5% Triton X-100, 1 mM Na3VO4) supplemented with protease inhibitors for 30 minutes at 0° C. After homogenizing 10 times with a loose fit Dounce homogenizer, lysates were mixed with 1 ml 85% sucrose in MBS (25 mM MES pH 6.5, 150 mM NaCl), and overlayered with 6 ml 30% sucrose in MBS, then with 4 ml 5% sucrose in MBS. Following centrifugation for 16 hours at 145,000 g in an SW40 rotor, 1 ml fractions were collected and analyzed by PAGE and immunoblotting with anti-Fyn, anti-LAT, or anti-Lck antibodies.
(§2) The ability of 2-bromopalmitate to inhibit localization of palmitoylated proteins to detergent resistant microdomains in activated Jurkat cells was examined next. Cells were either left untreated or treated with 100 μM 2-bromopalmitate for 3 hours, washed, resuspended in serum-free media, and the TCR was activated with OKT3 mAb. Activated cells were extracted with Triton X-100 containing buffer. […] Each fraction was analyzed by immunoblotting with specific antibodies. […]

[2] = test system: Fyn; test: Subcellular fractionation (P100/S100) of Fyn in COS-1 cells
Description: Each 60 mm plate of Fyn transfected COS-1 cells was starved for […] in DMEM containing 2.5% FBS and 0.5% defatted BSA with or without 100 μM 2-bromopalmitate. After overnight culture at 37° C., the cells were fractionated into P100 and S100 fractions, immunoprecipitated with anti-Fyn antibody, subjected to SDS-PAGE, and immunoblotted with anti-Fyn antibody as previously described (9,12,13).
For analysis of newly synthesized Fyn, cells were cultured overnight as descibed above, then starved for 1 hr in DMEM minus methionine and cysteine containing 2% dialyzed FBS, 0.5% defatted BSA with or without 100 μM 2-bromopalmitate. Cells were labeled for 5 minutes with Trans^35S-Label (ICN, Irvine, Calif.), then fractionated as described above. Gels were treated for 20 minutes with 1M salicylic acid prior to drying. The Gαo(10)-Fyn chimera was labeled for 5 min and GAP-43 Fyn chimera was labeled for 2 hours and fractionated according to the above conditions.
Newly synthesized Fyn becomes plasma membrane bound within 5 minutes after biosynthesis (12). The rapid membrane targeting is dependent on dual fatty acylation of Fyn with myristate and palmitate. The effect of 2-bromopalmitate on the ability of newly synthesized Fyn to localize to membranes was next examined. Transfected COS-1 cells were incubated for 12-16 hours with or without 100 μM 2-bromopalmitate. […]

[3] = test system: LAT; test: DRM (raft) localization in activated Jurkat cells, sucrose gradient: LAT; details: 100 μM 3 hours, OKT3 activated, control 71%
Description: as §1, §2

[4] = test system: G2A,C3SFyn-HRas and G12V H-Ras; test: Membrane localization of the two Ras constructs in COS-1 cells; details: COS-1, 2-bromopalmitate overnight
Description: Analysis of the G2A,C3S Fyn-HRas chimera was performed according to the procedure described above. Analysis of the G12V HRas construct was according to the procedure described above, except that the samples were not immunoprecipiated, and were subjected to immunoblotting with anti-HRas antibody.
Each of these three sequences was appended onto the Fyn protein. Gαo(10)-Fyn and GAP43(10)-Fyn are chimeric constructs with the first 10 amino acids of Gαo or GAP-43, respectively, in place of the first 10 amino acids of wt Fyn. These constructs have been previously described (12,13). In addition, the H-Ras tail was fused to the C-terminus of a non-acylated Fyn mutant (G2A,C3SFyn-HRas). This construct contains full length Fyn with mutations in the N-terminal myristoylation and palmitoylation sites, but with the C-terminus of H-Ras available for prenylation and palmitoylation.
Finally, an oncogenic G12V full length H-Ras construct was tested. […] In contrast, 2-bromopalmitate had only a minimal effect on the membrane localization of the two Ras constructs, inducing a 10-20% shift from membrane to cytosol (FIGS. 3C and D). The G12V H-Ras construct migrates as a doublet on a gel. The slower migrating form represents the non-processed cytosolic form of H-Ras, and the faster migrating form represents the processed Ras, which is membrane bound.

`CCCCCCCCCCCCCCC(Br)C(=O)O` (centres unmarked) [2-bromopalmitate] was tested, and the “Lck found in the rafts” value [1] was 19%, the “newly synthesized Fyn remaining cytosolic” value ([2]; COS-1, 100 μM for 12-16 hours, 5 min 35S label, untreated 90% membrane bound) was 50% and the “steady-state Fyn fractionating in the cytosol” value ([2]; COS-1, 100 μM, Western blot, data not shown) was 50%. For the same compound, the “LAT associated with detergent resistant microdomains” value [3] was 41% and the “shift from membrane to cytosol of the two Ras constructs” value [4] was 10-20%.
